Measurements as given in the supplement of paper PMC10331698.
± gives the standard deviation of the averaged measurements.

Assays:
Assay in all cases: LOEC (log10 uM (lowest observed effect concentration))
[1] = compound: C=CC(=O)OCCC(F)(F)C(F)(F)C(F)(F)C(F)(F)F [2-(Perfluorobutyl)ethyl acrylate]
Procedure: (§1)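 BioMAP Diversity Plus panel in human primary cell co-cultures, 4 concentrations in duplicate blinded samples. Responses are log10 fold change versus DMSO control, processed with tcpl v2.1.0. A hit is called when responses at any concentration exceed the cutoff (the larger of 3*bmad or log10(1.2)); the lowest observed effect concentration (modl_ga, log10 uM) is reported for hits.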

[2] = compound: O=C(O)C(F)(F)C(F)(F)C(F)(F)C(F)(F)C(F)(F)C(F)(F)C(F)(F)C(F)(F)Cl [9-Chloro-perfluorononanoic acid]
Procedure: as §1

[3] = compound: CNS(=O)(=O)C(F)(F)C(F)(F)C(F)(F)C(F)(F)C(F)(F)C(F)(F)C(F)(F)C(F)(F)F [N-Methylperfluorooctanesulfonamide]
Procedure: as §1

[4] = compound: O=C(O)C(F)(F)C(F)(F)C(F)(F)C(F)(F)C(F)(F)C(F)(F)C(F)(F)C(F)(F)C(F)(F)C(F)(F)C(F)(F)C(F)(F)F [Perfluorotridecanoic acid]
Procedure: as §1

[5] = compound: Cn1cnc([N+](=O)[O-])c1Sc1ncnc2[nH]cnc12 [Azathioprine]
Procedure: as §1

[6] = compound: O=C(O)C(F)(F)OC(F)(F)C(F)(F)OC(F)(F)C(F)(F)C(F)(F)C(F)(F)F [Perfluoro-3,6-dioxadecanoic acid]
Procedure: as §1

[7] = compound: N=C(N)C(F)(F)C(F)(F)C(F)(F)C(F)(F)C(F)(F)C(F)(F)C(F)(F)F [Perfluorooctanamidine]
Procedure: as §1

[8] = compound: O=C(O)C(F)(F)C(F)(F)C(F)(F)C(F)(F)C(F)(F)C(F)(F)C(F)(F)C(F)(F)C(F)(F)C(F)(F)C(F)(F)C(F)(F)C(F)(F)F [Perfluorotetradecanoic acid]
Procedure: as §1

[9] = compound: O=P(O)(O)CCC(F)(F)C(F)(F)C(F)(F)C(F)(F)C(F)(F)C(F)(F)C(F)(F)C(F)(F)F [((Perfluorooctyl)ethyl)phosphonic acid]
Procedure: as §1

[10] = compound: O=S(=O)(O)C(F)(F)C(F)(F)C(F)(F)C(F)(F)C(F)(F)C(F)(F)C(F)(F)C(F)(F)F [Perfluorooctanesulfonic acid]
Procedure: as §1

[11] = compound: O=S(=O)(O)C(F)(F)C(F)(F)C(F)(F)C(F)(F)C(F)(F)C(F)(F)C(F)(F)C(F)(F)F [Potassium perfluorooctanesulfonate]
Procedure: as §1

In the case of 3C Eselectin down, the “LOEC (log10 uM)” value [1] is reported as 1.78.
3C Eselectin up was tested, and the “LOEC (log10 uM)” value [2] was 1.78.
With 3C HLADR down the “LOEC (log10 uM)” value [3] was 1.3 and the “LOEC (log10 uM)” value [2] was 1.78.
With 3C IL8 down the “LOEC (log10 uM)” value [4] was 1.22 ± 0.37.
With 3C MCP1 down the “LOEC (log10 uM)” value [2] was 1.78.
With 3C SRB down the “LOEC (log10 uM)” value [5] was 1.48, the “LOEC (log10 uM)” value [6] was 1.78 and the “LOEC (log10 uM)” value [2] was 1.78.
For 3C Thrombomodulin down, the “LOEC (log10 uM)” value [1] was 1.54 ± 0.34.
With 3C TissueFactor down the “LOEC (log10 uM)” value [1] was 1.54 ± 0.34.
With 3C VCAM1 down the “LOEC (log10 uM)” value [2] was 1.78, the “LOEC (log10 uM)” value [1] was 1.54 ± 0.34 and the “LOEC (log10 uM)” value [7] was 1.78.
For 4H Eotaxin3 down, the “LOEC (log10 uM)” value [8] was 0.345 ± 0.71, the “LOEC (log10 uM)” value [9] was 1.78 and the “LOEC (log10 uM)” value [7] was 1.78.
4H SRB down was tested, and the “LOEC (log10 uM)” value [4] was 1.22 ± 0.37 and the “LOEC (log10 uM)” value [2] was 1.78.
In the case of 4H VCAM1 down, the “LOEC (log10 uM)” value [8] is reported as 0.0731 ± 0.32, the “LOEC (log10 uM)” value [4] is reported as 0.716 ± 0.34 and the “LOEC (log10 uM)” value [5] is reported as 1.48. For the same test system, the “LOEC (log10 uM)” value [2] was 1.78 and the “LOEC (log10 uM)” value [7] was 1.78.
4H VEGFRII down was tested, and the “LOEC (log10 uM)” value [4] was 1.48.
For BE3C EGFR down, the “LOEC (log10 uM)” value [10] was 1.3, the “LOEC (log10 uM)” value [6] was 1.78 and the “LOEC (log10 uM)” value [11] was 1.3. The “LOEC (log10 uM)” value [2] was 1.3.
In the case of BE3C HLADR down, the “LOEC (log10 uM)” value [10] is reported as 1.3, the “LOEC (log10 uM)” value [6] is reported as 1.54 ± 0.34 and the “LOEC (log10 uM)” value [11] is reported as 1.3. The “LOEC (log10 uM)” value [2] was 1.3.
With BE3C ICAM1 down the “LOEC (log10 uM)” value [2] was 1.78.
For BE3C IL1a down, the “LOEC (log10 uM)” value [10] was 1.78, the “LOEC (log10 uM)” value [6] was 1.78 and the “LOEC (log10 uM)” value [2] was 1.54 ± 0.34.
For BE3C IL8 down, the “LOEC (log10 uM)” value [10] was 1.3, the “LOEC (log10 uM)” value [3] was 1.54 ± 0.34 and the “LOEC (log10 uM)” value [2] was 1.54 ± 0.34.
For BE3C IP10 down, the “LOEC (log10 uM)” value [10] was 1.3, the “LOEC (log10 uM)” value [6] was 1.54 ± 0.34 and the “LOEC (log10 uM)” value [11] was 1.3. The “LOEC (log10 uM)” value [2] was 1.3.
In the case of BE3C ITAC down, the “LOEC (log10 uM)” value [10] is reported as 1.54 ± 0.34, the “LOEC (log10 uM)” value [11] is reported as 1.3 and the “LOEC (log10 uM)” value [2] is reported as 1.3.
For BE3C ITAC up, the “LOEC (log10 uM)” value [6] was 0.845.
In the case of BE3C Keratin818 down, the “LOEC (log10 uM)” value [2] is reported as 1.78.
BE3C MIG down was tested, and the “LOEC (log10 uM)” value [10] was 1.78 and the “LOEC (log10 uM)” value [2] was 1.78.
For BE3C MMP1 up, the “LOEC (log10 uM)” value [6] was 1.3, the “LOEC (log10 uM)” value [11] was 0.573 ± 0.39 and the “LOEC (log10 uM)” value [7] was 1.78.
BE3C MMP9 down was tested, and the “LOEC (log10 uM)” value [10] was 1.3, the “LOEC (log10 uM)” value [3] was 0.573 ± 0.39 and the “LOEC (log10 uM)” value [11] was 1.3. For the same test system, the “LOEC (log10 uM)” value [2] was 1.78.
In the case of BE3C PAI1 down, the “LOEC (log10 uM)” value [10] is reported as 1.3, the “LOEC (log10 uM)” value [3] is reported as 0.845 and the “LOEC (log10 uM)” value [11] is reported as 1.3. For the same test system, the “LOEC (log10 uM)” value [2] was 1.3.
In the case of BE3C SRB down, the “LOEC (log10 uM)” value [10] is reported as 1.3, the “LOEC (log10 uM)” value [11] is reported as 1.3 and the “LOEC (log10 uM)” value [2] is reported as 1.54 ± 0.34.
In the case of BE3C tPA down, the “LOEC (log10 uM)” value [5] is reported as 1.22 ± 0.37, the “LOEC (log10 uM)” value [6] is reported as 1.78 and the “LOEC (log10 uM)” value [2] is reported as 1.78.
BE3C tPA up was tested, and the “LOEC (log10 uM)” value [9] was 1.3.
BE3C uPA down was tested, and the “LOEC (log10 uM)” value [10] was 1.78 and the “LOEC (log10 uM)” value [2] was 1.78.
BE3C uPAR down was tested, and the “LOEC (log10 uM)” value [2] was 1.78.
With BE3C uPAR up the “LOEC (log10 uM)” value [11] was 1.54 ± 0.34.
With BF4T Eotaxin3 down the “LOEC (log10 uM)” value [9] was 1.54 ± 0.34, the “LOEC (log10 uM)” value [6] was 0.845 and the “LOEC (log10 uM)” value [2] was 0.801 ± 0.71.
With BF4T ICAM1 down the “LOEC (log10 uM)” value [2] was 1.78.
With BF4T IL1a down the “LOEC (log10 uM)” value [2] was 1.78.
For BF4T IL8 down, the “LOEC (log10 uM)” value [3] was 1.78.
With BF4T IL8 up the “LOEC (log10 uM)” value [6] was 1.07 ± 0.32.
BF4T Keratin818 down was tested, and the “LOEC (log10 uM)” value [2] was 1.78.
With BF4T MCP1 down the “LOEC (log10 uM)” value [6] was 0.573 ± 0.39 and the “LOEC (log10 uM)” value [2] was 0.801 ± 0.71.
In the case of BF4T MMP1 down, the “LOEC (log10 uM)” value [2] is reported as 1.78.
With BF4T MMP3 up the “LOEC (log10 uM)” value [6] was 1.3.
For BF4T MMP9 down, the “LOEC (log10 uM)” value [2] was 1.78.
In the case of BF4T PAI1 down, the “LOEC (log10 uM)” value [2] is reported as 1.78.
For BF4T SRB down, the “LOEC (log10 uM)” value [2] was 1.78.
For BF4T VCAM1 down, the “LOEC (log10 uM)” value [5] was 1.48 and the “LOEC (log10 uM)” value [2] was 1.3.
In the case of BF4T tPA down, the “LOEC (log10 uM)” value [2] is reported as 1.3.
In the case of BF4T uPA down, the “LOEC (log10 uM)” value [2] is reported as 1.78.
BT Bcell Proliferation down was tested, and the “LOEC (log10 uM)” value [9] was 1.78, the “LOEC (log10 uM)” value [5] was 1.48 and the “LOEC (log10 uM)” value [1] was 1.78. The “LOEC (log10 uM)” value [7] was 1.78.
With BT Bcell Proliferation up the “LOEC (log10 uM)” value [2] was 1.78.
For BT PBMCCytotoxicity down, the “LOEC (log10 uM)” value [1] was 1.54 ± 0.34.
For BT PBMCCytotoxicity up, the “LOEC (log10 uM)” value [6] was 1.78 and the “LOEC (log10 uM)” value [2] was 1.78.
In the case of BT sIgG down, the “LOEC (log10 uM)” value [5] is reported as -0.0458 and the “LOEC (log10 uM)” value [1] is reported as 1.78.
BT xIL2 down was tested, and the “LOEC (log10 uM)” value [5] was 1.48 and the “LOEC (log10 uM)” value [1] was 1.78.
BT xIL6 down was tested, and the “LOEC (log10 uM)” value [5] was 1.48 and the “LOEC (log10 uM)” value [1] was 1.78.
In the case of BT xIL17A down, the “LOEC (log10 uM)” value [5] is reported as 1.48 and the “LOEC (log10 uM)” value [1] is reported as 1.54 ± 0.34.
In the case of BT xIL17F down, the “LOEC (log10 uM)” value [5] is reported as 1.48 and the “LOEC (log10 uM)” value [1] is reported as 1.3.
With BT xTNFa down the “LOEC (log10 uM)” value [5] was 0.716 ± 0.34 and the “LOEC (log10 uM)” value [1] was 1.3.
With CASM3C MIG down the “LOEC (log10 uM)” value [3] was 1.07 ± 0.32 and the “LOEC (log10 uM)” value [1] was 1.78.
With CASM3C Proliferation down the “LOEC (log10 uM)” value [5] was 1.48.
For CASM3C SAA up, the “LOEC (log10 uM)” value [4] was 0.477 ± 0.68.
For CASM3C VCAM1 down, the “LOEC (log10 uM)” value [3] was 0.801 ± 0.71, the “LOEC (log10 uM)” value [4] was 0.954 and the “LOEC (log10 uM)” value [5] was 1.48. The “LOEC (log10 uM)” value [1] was 1.78.
In the case of IMphg CD40 down, the “LOEC (log10 uM)” value [4] is reported as 1.48, the “LOEC (log10 uM)” value [5] is reported as 1.48 and the “LOEC (log10 uM)” value [6] is reported as 1.78. The “LOEC (log10 uM)” value [2] was 1.78.
With IMphg CD69 down the “LOEC (log10 uM)” value [6] was 1.78 and the “LOEC (log10 uM)” value [2] was 1.78.
In the case of IMphg ESelectin down, the “LOEC (log10 uM)” value [3] is reported as 0.845 and the “LOEC (log10 uM)” value [5] is reported as 1.48.
IMphg ESelectin up was tested, and the “LOEC (log10 uM)” value [10] was 1.78, the “LOEC (log10 uM)” value [9] was 1.78 and the “LOEC (log10 uM)” value [11] was 1.78.
In the case of IMphg IL1a up, the “LOEC (log10 uM)” value [3] is reported as 1.54 ± 0.34.
In the case of IMphg MCP1 down, the “LOEC (log10 uM)” value [2] is reported as 1.78.
In the case of IMphg MCSF down, the “LOEC (log10 uM)” value [5] is reported as 1.48.
